The values below come from EPA's ToxValDB 9.5 (doi:10.2903/j.efsa.2011.1969).

For one data set, the system named is Anas platyrhynchos. The note with it: short-term; oral; feed; mortality.
The subject of a further data set is Apis mellifera. The conditions noted are these: acute; duration: 48 hours; oral; unspecified; mortality.
For a further data set, the system named is Daphnia magna. The note with it: chronic/long-term; duration: 21 days; reproduction.
A further data set deals with Bibionidae. The conditions noted are these: chronic/long-term; duration: 27 days.
Another data set deals with Folsomia candida. The conditions noted are these: chronic/long-term; duration: 28 days.
For a further data set, the system named is Colinus virginianus. The note with it: acute; oral; mortality.
The test system of a further data set is Tagia sp. The conditions noted are these: acute; duration: 14 days; mortality.
The next data set deals with Coturnix japonica. The conditions noted are these: reproduction developmental.
The subject of a further data set is Aphidius rhopalosiphi. The experiment in a line: LR50; higher = less toxic. The conditions noted are these: not reported; mortality.
The test system of another data set is Typhlodromus pyri. In words: LR50; higher = less toxic. The conditions noted are these: not reported; mortality.

In brackets after ≈: the same amount, converted by molar mass. Where only a bound is given, the exact number is not on record here.

As usually defined, the NOAEL is the highest tested level that showed no adverse finding.

Turning to `CCNc1nc(Cl)nc(NC(C)(C)C)n1` [Terbutylazine], the LC50 in the data set with Anas platyrhynchos is > 395 mg/kg-day; in the data set on Tagia sp. it was > 283 mg/kg; with Oncorhynchus mykiss (acute, duration: 96 hours, mortality), 2.2 µg/mL (≈ 9.58 µM). Also, the LD50 is > 22.6 µg/piece in the data set on Apis mellifera; < 1590 mg/kg in the data set on Rattus norvegicus (acute, oral, mortality); 1240 mg/kg-day with Colinus virginianus. For the same molecule, the NOEC with Daphnia magna came out at 0.019 mg/L; with Bibionidae, 0.5 mg/L; in the data set with Folsomia candida it was 42.2 mg/kg; with Oncorhynchus mykiss (chronic/long-term, duration: 90 days, time to swim up), 0.09 mg/L. The molecule also showed an NOAEL in the data set on Rattus norvegicus (chronic) of 3.3 mg/kg-day. The same molecule returned an NOEL with Coturnix japonica of 13.8 mg/kg-day. For the same molecule, the LR50 in the data set with Aphidius rhopalosiphi and in the data set with Typhlodromus pyri was > 750 g/ha each time.
